From ChEMBL document CHEMBL1150799, “Vancomycin in vitro bactericidal activity and its relationship to efficacy in clearance of methicillin-resistant Staphylococcus aureus bacteremia” (2007)

System: Staphylococcus aureus
Experiment: Antibacterial activity against methicillin-resistant Staphylococcus aureus assessed as bacterial killing at 16 ug/ml by serial dilution method after 24 hrs
Format: functional

Which log10CFU/ml does the source give for CN[C@H](CC(C)C)C(=O)N[C@H]1C(=O)N[C@@H](CC(N)=O)C(=O)N[C@H]2C(=O)N[C@H]3C(=O)N[C@H](C(=O)N[C@H](C(=O)O)c4cc(O)cc(O)c4-c4cc3ccc4O)[C@H](O)c3ccc(c(Cl)c3)Oc3cc2cc(c3O[C@@H]2O[C@H](CO)[C@@H](O)[C@H](O)[C@H]2O[C@H]2C[C@](C)(N)[C@H](O)[C@H](C)O2)Oc2ccc(cc2Cl)[C@H]1O [VANCOMYCIN] here?
Its log10CFU/ml is 0.82.
